Laboratory results: US20260008760A1, “DIPEPTIDYL PEPTIDASE 1 INHIBITORS AND USES THEREOF” (Insmed Incorporated, priority 2024, published 2026)

Key:
DPP1 in HL-60 cells = DPP1 in HL-60 cells (Homo sapiens, UniProt P53634); experiment: DPP1 Cell Single-Point Percent Inhibition Testing; type: cell-based; parameters: host or cells: HL-60 cells; details: final compound concentration 5 nM, n = 1
Summary of the method: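 HL-60 cells in unsupplemented RPMI preincubated 60 min at 37 °C with test article (5 nM final, 0.1% DMSO), then given cell-permeable H-Gly-Phe-AFC (100 μM final) for 30 min. Fluorescence at 400/505 nm; percent inhibition versus vehicle after subtracting cell-free background and 10 μM brensocatib non-specific signal.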

human DPP1 enzyme = human DPP1 enzyme (Homo sapiens, UniProt P53634); experiment: Human DPP1 Enzyme Single-Point Percent Inhibition Testing (HL-60 lysate); type: biochemical; parameters: A crude lysate of HL-60 cells (ATCC; Manassas, VA) was used as a source of human DPP1 enzyme; host or cells: HL-60 cells (crude lysate); details: final compound concentration of 10 nM, 400 μM H-Gly-Arg-AMC, n = 1
Summary of the method: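 Enzyme source was HL-60 cell lysate in MES pH 6.0 buffer with NaCl and DTT, pre-incubated 10 min at 37° C with 10 nM compound (final, 1% DMSO). Cleavage of 400 μM H-Gly-Arg-AMC was followed at 350/450 nm over 90 min at 37° C, and percent inhibition was taken against vehicle wells.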

Sequence of human DPP1 enzyme (P53634 25-463): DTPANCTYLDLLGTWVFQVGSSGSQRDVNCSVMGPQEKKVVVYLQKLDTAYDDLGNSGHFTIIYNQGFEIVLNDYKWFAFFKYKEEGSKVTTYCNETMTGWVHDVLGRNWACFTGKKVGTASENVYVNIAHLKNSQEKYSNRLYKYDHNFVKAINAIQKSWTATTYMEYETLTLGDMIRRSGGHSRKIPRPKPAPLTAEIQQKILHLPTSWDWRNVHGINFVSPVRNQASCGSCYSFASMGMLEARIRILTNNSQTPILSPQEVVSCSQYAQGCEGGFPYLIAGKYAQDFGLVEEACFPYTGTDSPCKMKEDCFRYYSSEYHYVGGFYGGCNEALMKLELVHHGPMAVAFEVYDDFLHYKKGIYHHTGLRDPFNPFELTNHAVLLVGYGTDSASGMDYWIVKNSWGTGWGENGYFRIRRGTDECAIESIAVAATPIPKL
Sequence of DPP1 in HL-60 cells (P53634 25-463): as above

| inhibition at 0.005 µM (DPP1 in HL-60 cells) | inhibition at 0.01 µM (human DPP1 enzyme) | Structure (SMILES) |
| --- | --- | --- |
| ≤ 76.5% | ≤ 40% | Cn1nnc2ccc(-c3ccc(C[C@@H](C#N)NC(=O)[C@@H]4CNCCCCO4)c(F)c3)cc21 [Compound H38] |
| ≤ 76.5% | 40 to 66.7% | CCN1C(=O)Cc2ccc(-c3ccc(C[C@@H](C#N)NC(=O)[C@@H]4CNC[C@@H](OC)CCO4)cc3)cc21 [Compound G5] |
| ≤ 76.5% | 40 to 66.7% | CO[C@@H]1CCNC[C@@H](C(=O)N[C@H](C#N)Cc2ccc(-c3ccn4ccnc4c3)cc2)OC1 [Compound H39] |
| ≤ 76.5% | 40 to 66.7% | Cn1ncc2ccc(-c3ccc(C[C@@H](C#N)NC(=O)[C@@H]4CNCCCCO4)c(F)c3)cc21 [Compound H37] |
| ≤ 76.5% | ≥ 66.7% | CCN1C(=O)Cc2ccc(-c3ccc(C[C@@H](C#N)NC(=O)[C@@H]4CN[C@@H](C)[C@H](O)CO4)c(F)c3)cc21 [Compound G8] |
| ≤ 76.5% | ≥ 66.7% | CCN1C(=O)Cc2ccc(-c3ccc(C[C@@H](C#N)NC(=O)[C@@H]4CNC[C@@H](OC)CCO4)c(F)c3)cc21 [Compound G6] |
| 76.5 to 93.9% | ≥ 66.7% | COC1CNC[C@@H](C(=O)N[C@H](C#N)Cc2ccc(-c3ccc4cnn(C)c4c3)cc2)OC1 (stereo partly drawn) [Compound H11] |
| ≤ 76.5% | ≥ 66.7% | C[C@@H]1NC[C@@H](C(=O)N[C@H](C#N)Cc2ccc(-c3ccc4cnn(C5CCN(C)CC5)c4c3)cc2F)OC[C@@H]1O [Compound H28] |
| 76.5 to 93.9% | ≥ 66.7% | COC1CNC[C@@H](C(=O)N[C@H](C#N)Cc2ccc(-c3ccc4cnn(C)c4c3)cc2F)OC1 (stereo partly drawn) [Compound H13] |
| ≤ 76.5% | ≥ 66.7% | COC1CNC[C@@H](C(=O)N[C@H](C#N)Cc2ccc(-c3ccc4cnn(C5CCN(C)CC5)c4c3)cc2F)OC1 (stereo partly drawn) [Compound H10] |
| ≤ 76.5% | ≤ 40% | C[C@@H]1NC[C@@H](C(=O)N[C@H](C#N)Cc2ccc(-c3ccc4cnn(C5CCN(C)CC5)c4c3)cc2)OC[C@@H]1O [Compound H27] |
| ≤ 76.5% | ≥ 66.7% | CO[C@@H]1CCNC[C@@H](C(=O)N[C@H](C#N)Cc2ccc(-c3ccc4nnn(C)c4c3)cc2)OC1 [Compound H6] |

The next lines start with the compound.

| Structure (SMILES) | inhibition at 0.005 µM (DPP1 in HL-60 cells) | inhibition at 0.01 µM (human DPP1 enzyme) |
| --- | --- | --- |
| CO[C@H]1CCO[C@H](C(=O)N[C@H](C#N)Cc2ccc(-c3cnc4c(n3)CCCC4)cc2)CNC1 [Compound A96] | ≤ 76.5% | 40 to 66.7% |
| COC1CNC[C@@H](C(=O)NC(C#N)Cc2cc3c(cc2F)-c2cc4c(cc2CO3)oc(=O)n4C)OC1 (stereo partly drawn) [Compound C14] | ≤ 76.5% | ≥ 66.7% |
| CO[C@H]1CCO[C@H](C(=O)NC(C#N)Cc2cc3c(cc2F)-c2ccc4oc(=O)n(C)c4c2CO3)CNC1 (stereo partly drawn) [Compound C17] | ≤ 76.5% | 40 to 66.7% |
| CN1CCCC2(C1)C(=O)N(C)c1ccc(-c3ccc(C[C@@H](C#N)NC(=O)[C@@H]4CNCCCO4)c(F)c3)cc12 (stereo partly drawn) [Compound 48] | ≤ 76.5% | 40 to 66.7% |
| CN1CCCC2(C1)C(=O)N(C)c1ccc(-c3ccc(C[C@@H](C#N)NC(=O)[C@@H]4CNCCCCO4)cc3)cc12 (stereo partly drawn) [Compound 36] | ≤ 76.5% | ≤ 40% |
| CO[C@@H]1CCNC[C@@H](C(=O)N[C@H](C#N)Cc2ccc(-c3ccc4c(c3)C3(CCN(C)C3)OC4=O)cc2)OC1 (stereo partly drawn) [Compound F8] | ≤ 76.5% | ≥ 66.7% |
| CN1CCC2(C1)OC(=O)c1ccc(-c3ccc(C[C@@H](C#N)NC(=O)[C@@H]4CNCCCCO4)c(F)c3)cc12 (stereo partly drawn) [Compound 43] | ≤ 76.5% | 40 to 66.7% |
| CO[C@H]1CCO[C@H](C(=O)N[C@H](C#N)Cc2ccc(-c3ccc4c(c3)C3(CCCN(C)C3)C(=O)N4C)cc2F)CNC1 (stereo partly drawn) [Compound F25] | ≤ 76.5% | ≥ 66.7% |
| CO[C@@H]1CCNC[C@@H](C(=O)N[C@H](C#N)Cc2cc3c(cc2F)-c2ccc(C#N)cc2CO3)OC1 [Compound B20] | ≥ 93.9% | ≥ 66.7% |
| N#C[C@H](Cc1ccc(-c2ccc3c(n2)CCCN3)cc1)NC(=O)[C@@H]1CNCCCCO1 [Compound A111] | ≤ 76.5% | ≤ 40% |
| CN1CC2(C1)OC(=O)c1ccc(-c3ccc(C[C@@H](C#N)NC(=O)[C@@H]4CNCCCCO4)cc3)cc12 [Compound 37] | ≤ 76.5% | ≤ 40% |
| N#C[C@H](Cc1cc2c(cc1F)-c1ccc(F)cc1CO2)NC(=O)[C@@H]1CNCCCCO1 [Compound B30] | ≤ 76.5% | ≤ 40% |
| N#C[C@H](Cc1ccc(-c2cnc3c(n2)CCCC3)cc1F)NC(=O)[C@@H]1CNCCCCO1 [Compound A115] | ≤ 76.5% | ≤ 40% |
| CO[C@@H]1CCNC[C@@H](C(=O)N[C@H](C#N)Cc2ccc(-c3ccc4c(c3)C3(CC4)CCN(C)CC3)cc2F)OC1 [Compound F11] | ≤ 76.5% | ≥ 66.7% |
| Cc1ncc(C)n2cc(-c3ccc(C[C@@H](C#N)NC(=O)[C@@H]4CN[C@@H](C)[C@@H](O)CO4)cc3)cc12 [Compound A134] | ≤ 76.5% | 40 to 66.7% |
| CO[C@@H]1CCNC[C@@H](C(=O)N[C@H](C#N)Cc2ccc(-c3ccc4c(c3)C3(CCCN(C)C3)C(=O)N4C)cc2)OC1 (stereo partly drawn) [Compound F7] | ≤ 76.5% | ≥ 66.7% |
| COC1CNC[C@@H](C(=O)N[C@H](C#N)Cc2ccc(-c3ccc4c(n3)CCCN4)cc2)OC1 (stereo partly drawn) [Compound A87] | 76.5 to 93.9% | ≥ 66.7% |

| Structure (SMILES) | inhibition at 0.005 µM (DPP1 in HL-60 cells) | inhibition at 0.01 µM (human DPP1 enzyme) |
| --- | --- | --- |
| Cc1cn2cc(-c3ccc(C[C@@H](C#N)NC(=O)[C@@H]4CNCCCO4)c(F)c3)cc2c(C)n1 [Compound A118] | ≤ 76.5% | ≤ 40% |
| CO[C@H]1CCO[C@H](C(=O)N[C@H](C#N)Cc2ccc(-c3ccc(CN4CCN(C)CC4)cc3)cc2)CNC1 [Compound F23] | ≤ 76.5% | ≤ 40% |
| CO[C@H]1CCO[C@H](C(=O)N[C@H](C#N)Cc2ccc(-c3ccc4c(c3)C3(CC4)CCN(C)CC3)cc2)CNC1 [Compound F18] | ≤ 76.5% | ≥ 66.7% |
| CO[C@H]1CCO[C@H](C(=O)N[C@H](C#N)Cc2ccc(-c3cc4c(C)ncc(C)n4c3)cc2)CNC1 [Compound A128] | 76.5 to 93.9% | 40 to 66.7% |
| COC1CNC[C@@H](C(=O)N[C@H](C#N)Cc2ccc(-c3cc4c(C)ncc(C)n4c3)cc2)OC1 (stereo partly drawn) [Compound A125] | ≥ 93.9% | ≥ 66.7% |
| Cn1c(=O)oc2cc3c(cc21)-c1cc(F)c(CC(C#N)NC(=O)[C@@H]2CNCCCCO2)cc1OC3 (stereo partly drawn) [Compound C25] | 76.5 to 93.9% | ≥ 66.7% |
| CO[C@H]1CCO[C@H](C(=O)N[C@H](C#N)Cc2ccc(-c3ccc4c(c3)C3(CCCN(C)C3)C(=O)N4C)cc2)CNC1 (stereo partly drawn) [Compound F19] | ≤ 76.5% | 40 to 66.7% |
| N#C[C@H](Cc1ccc(-c2ccc(S(=O)(=O)N3CCC3)cc2)cc1)NC(=O)[C@@H]1CNCCCCO1 [Compound 46] | ≤ 76.5% | ≤ 40% |
| CO[C@H]1CCO[C@H](C(=O)N[C@H](C#N)Cc2ccc(-c3ccc(CN4CCN(C)CC4)cc3)cc2F)CNC1 [Compound F28] | ≤ 76.5% | ≤ 40% |
| CN1CC2(C1)OC(=O)c1ccc(-c3ccc(C[C@@H](C#N)NC(=O)[C@@H]4CNCCCCO4)c(F)c3)cc12 [Compound 42] | ≤ 76.5% | 40 to 66.7% |
| N#C[C@H](Cc1ccc(-c2ccc(S(=O)(=O)N3CCC3)cc2)cc1F)NC(=O)[C@@H]1CNCCCO1 [Compound 49] | ≤ 76.5% | ≤ 40% |
| C[C@@H]1NC[C@@H](C(=O)N[C@H](C#N)Cc2ccc(-c3ccc4c(n3)CCCN4)cc2F)OC[C@H]1O [Compound A101] | 76.5 to 93.9% | ≥ 66.7% |
| CO[C@H]1CCO[C@H](C(=O)N[C@H](C#N)Cc2ccc(-c3ccc4c(c3)C3(CCN(C5COC5)CC3)OC4)cc2)CNC1 [Compound F22] | ≤ 76.5% | 40 to 66.7% |
| Cc1nc(C)c2cc(-c3ccc(C[C@@H](C#N)NC(=O)[C@@H]4CN[C@@H](C)[C@H](O)CO4)cc3)cn2c1C [Compound A132] | 76.5 to 93.9% | ≥ 66.7% |
| N#C[C@H](Cc1ccc(-c2ccc3c(c2)C2(CCN(C4COC4)CC2)OC3)cc1)NC(=O)[C@@H]1CNCCCCO1 [Compound 39] | ≤ 76.5% | ≤ 40% |
| COC1CNC[C@@H](C(=O)N[C@H](C#N)Cc2ccc(-c3cc4c(C)nc(C)c(C)n4c3)cc2)OC1 (stereo partly drawn) [Compound A126] | ≥ 93.9% | ≥ 66.7% |
